Earlier results as cited in US20060089343A1, “Superoxide dismutase mimics for the treatment of ocular disorders and diseases” (ALCON, INC., priority 2002, published 2006).

Assays:
[1] = albino rats
[2] = diabetogenic T-cell clone
[3] = test system: IL-6 and MIP-2; settings: administration after induction of cerebral ischemia
[4] = given either before or after induction of cerebral ischemia
[5] = diabetic rats

In the case of `CC1(C)CC(O)CC(C)(C)N1[O]` [4-hydroxy-2,2,6,6-tetramethylpiperidine-1-oxyl], the light-induced retinal damage [1] is given as “inhibited light-induced retinal damage”.

For `CCN1C=CC=C/C1=C1/C2=NC(=C(c3cccc[n+]3CC)C3=NC(=C(c4cccc[n+]4CC)c4ccc([n-]4)C(c4cccc[n+]4CC)=C4C=CC1=N4)C=C3)C=C2.[Cl-].[Cl-].[Cl-].[Cl-].[Cl-].[Mn+3]` [AEOL10113], the onset of diabetes [2] is listed as “delay the onset of diabetes”.

In the case of `CCn1cc[n+](CC)c1C1=C2C=CC3=[N+]2[Mn]24[n]5c1ccc5C(c1n(CC)cc[n+]1CC)=C1C=CC(=[N+]12)C(c1n(CC)cc[n+]1CC)=c1ccc([n]14)=C3c1n(CC)cc[n+]1CC` [Compound 1], the “expression of pro-inflammatory proteins, such as IL-6 and MIP-2” value [3] is given as “attenuation of the increased expression”.

In the case of `CC[n+]1ccccc1C1=C2C=CC3=[N+]2[Mn]24[n]5c1ccc5C(c1cccc[n+]1CC)=C1C=CC(=[N+]12)C(c1cccc[n+]1CC)=c1ccc([n]14)=C3c1cccc[n+]1CC` [Compound 2], the infarct volume [4] is listed as “reduces infarct volume”.

For `[Cl-].[Cl-].[Mn+2].c1cc2nc(c1)CN[C@@H]1CCCC[C@H]1NCCN[C@@H]1CCCC[C@H]1NC2` [Compound M40403], the “vascular and neural dysfunction” value [5] is given as “prevented vascular and neural dysfunction”.
